Consider one molecule from patent publication US20140045807A2, “THE USE OF 3-METHOXY-PREGNENOLONE FOR THE PREPARATION OF A DRUG FOR TREATING A TRAUMATIC BRAIN INJURY” (priority 2004, published 2014).

Format in all cases: in vivo, rat
In test [1] the test system is spinal cord compression in rats. Kind of test: Spinal cord compression model, locomotor recovery (BBB score). The conditions noted are these: 12 mg/kg/day subcutaneous for 2 weeks; as of post-operation day 7. Here is the method: FIG. 7: Effect of molecule 43B on locomotor recovery following spinal cord compression in rats. Animal locomotion was evaluated in a blind format during the 1-28 day post-operative period using the BBB score which evaluates the degree of paralysis (higher values correspond to better recovery). Statistical significance: * indicates p<0.001; ** indicates p<0.0001.
To determine the neuroprotective effects of the molecules tested, a spinal cord compression model is used. This model involves the total paralysis of the animals in the first few days following the operation. This period of paralysis is followed of a phase of approximately three weeks during which the animals partially recover their motor function. The study of this recovery using a simple and precise functional test based on observation of the animals (the BBB score) makes it possible to study the speed and the degree of recovery of the animals, with and without treatment.
Two groups of rats were subjected to spinal cord compression. Then, daily for 2 weeks, the animals received a subcutaneous injection containing either sesame oil alone (control group, n=20), or sesame oil containing molecule 43B (43B group, n=20; 12 mg/kg/day). The first injection was given minutes after spinal cord compression. Locomotion of the animals, using BBB scores, was evaluated in a blind format on post-operation days 1, 4, 7, 14, 21, and 28. […]

For another test, the system named is CHI traumatized animals. Kind of test: MRI of ventricular dilatation after Closed Head Injury (CHI). The note with it: 20 mg/kg starting 24 hours post-trauma, day 28, compared to the vehicle. Here is the method:
FIG. 17: Ventricular dilatation of Control animals injected with sesame oil (Control) and CHI traumatized animals injected with sesame oil (CHI-D0), or MAP4343 at 10 mg/kg (CHI-D1) or 20 mg/kg (CHI-D2) at day 28 post-trauma. (A) Representative MRI images.
The model “Closed Head Injury” (CHI), also commonly known as “weight-drop”, “impact-acceleration” or Marmarou model, allows the induction of TBI on a closed skull and generates diffuse axonal injuries (Holtzer et al 2001). After anesthesia induction, the scalp was incised, a piece of metal (diameter […], height 3 mm)—designed to protect against skull fracture—was glued to the skull, between the lambda and bregma. The animal was then placed on a foam bed and a cylindrical metallic 230-g weight was dropped from 2 m through a metal tubing onto the disk. At the very moment of the impact, the head of the animal plunged briefly in the foam bed, which leads to an acceleration/deceleration of the brain inside the skull. […]
MRI imaging of rats was performed at day 28 post-trauma. Based on MRI imaging, ventricular dilatation induced by CHI trauma was analyzed in CHI traumatized rats injected from 24 hours post-trauma with sesame oil (CHI-D0), or 3-methoxy-PREG (MAP4343) at 10 mg/kg (CHI-D1) or 20 mg/kg (CHI-D2).

In the next test the test system is CCI traumatized animals. Kind of test: Water Exploration Test (WET) after Controlled Cortical Impact (CCI). The conditions noted are these: for Entry number in CZ, Mean / Time spent in CZ, Mean: C-D0 = 100. Further details: key to Time spent in CZ, Conclusion vs. CCI-D0: ↓ ↓ ↓: decrease of analyzed variable with p < 0.001; ?: stability of analyzed variable; ↑: increase in analyzed variable with p < 0.05; key to Entry number in CZ, Conclusion vs. CCI-D0: ↓: decrease of analyzed variable with p < 0.05; ?: stability of analyzed variable; ↑ ↑: increase in analyzed variable with p < 0.01. Here is the method:
Male Sprague-Dawley rats of […] are used. There were 12 animals per group for all in vivo experiments (WET, MRI) except for the CHI injury which requested 17 animals per group because of the post-trauma mortality rate. Each group was then split in two subgroups of 6 individuals for all post-mortem analysis (biochemical, histological and immunohistological analysis.
CCI was performed with an electromagnetic impact device as described (MyNeurolab, St. Louis, Mo.; Brody et al. 2007). Anesthesized rats were subjected to a single right lateral CCI, with the following parameters: impact centered 4.0 mm anterior to lambda and 4.5 mm […] of midline, within the craniotomy of the animal. The impact was set at a velocity of 4 m/s with a sustained depression of 200 ms, using a 5.0 mm tip.
The […] is a rat, the more time it will spend “floating” (null velocity) in the central zone (see Fares-2009).
More precisely, a circular tank (180 cm diameter, 60 cm high) is filled with water maintained at 27° C. to a depth of 40 cm. The water is made opaque by adding black gouache, allowing the VideoTrack system (ViewPoint) to detect the white-coloured rat. This tank is divided into 4 identical quadrants (6,358 cm2 each) using two 180 cm long opaque plastic separators. In each quadrant, one rat is introduced with its head facing the corner between the separator and the tank's wall. It is noteworthy to emphasize that 4 rats can be tested simultaneously using the 4 quadrants. Using the VideoTrack system, we draw two virtual areas: a large one delineates the whole quadrant in which the rat is placed, the so-called Full Quadrant (FQ) and a small one that delineates a central zone (CZ). The CZ, having the same shape as the FQ, measures 2,921 cm2, and is considered to be anxiogenic for animals. Thus, the distance, the number of entries, the time spent, and the velocity profile in the CZ are measured to assess anxiety-like behaviour. In addition, the total distance traveled in the FQ represents an indicator of motor activity. The duration of each trial is 5 minutes.
The effect of 3-methoxy-PREG (MAP4343) on anxiety induced by trauma was analyzed using the WET test.

The mark [2] stands for this setting: Day 7, CCI-D1, 10 mg/kg from 24 hours post-trauma.
The mark [3] stands for this setting: Day 7, CCI-D2, 20 mg/kg from 24 hours post-trauma.
Where [4] appears, read: Day 27, CCI-D1, 10 mg/kg from 24 hours post-trauma.
Where [5] appears, read: Day 27, CCI-D2, 20 mg/kg from 24 hours post-trauma.

With `CO[C@H]1CC[C@@]2(C)C(=CC[C@H]3[C@@H]4CC[C@H](C(C)=O)[C@@]4(C)CC[C@@H]32)C1` [3-methoxy-PREG, 3β-methoxy-pregna-5-ene-20-one], the “BBB score (locomotion)” value in test [1] is recorded as “quite significantly higher than the control animals”. Moreover, in the test on CHI traumatized animals, the “ventricular dilatation (ventricles area, MRI)” value is reported as “significantly decreases the ventricular dilatation”. Besides, the “Entry number in CZ, Mean” value is listed as 64 with CCI traumatized animals (setting [2]), 73 in the test on CCI traumatized animals (setting [3]), 79 in the test on CCI traumatized animals (setting [4]) and 114 in the test on CCI traumatized animals (setting [5]). In addition, the “Time spent in CZ, Mean” value in the test on CCI traumatized animals (setting [2]) worked out at 48; with CCI traumatized animals (setting [3]), 66; in the test on CCI traumatized animals (setting [4]), 86; with CCI traumatized animals (setting [5]), 95. Besides, the “Time spent in CZ, Conclusion vs. CCI-D0” value is “↑” in the test with CCI traumatized animals (Day 7, CCI-D2, 20 mg/kg) and “↑” with CCI traumatized animals (Day 27, CCI-D2, 20 mg/kg). In addition, the “Entry number in CZ, Conclusion vs. CCI-D0” value in the test with CCI traumatized animals (Day 27, CCI-D2, 20 mg/kg) is listed as “↑ ↑”. In addition, the “anxiety induced by CCI trauma” value in the test with CCI traumatized animals (as early as day 7, in particular at 20 mg/kg (D2)) is “alleviated”.
